Test results taken from PubChem BioAssay AID1259407 (Chemical Carcinogenesis Research Information System (CCRIS), 2018).
Active and inactive are the calls of the source. No rule for the calls is given here.

Test system: CCRIS mutagenicity, Ames/micronucleus/aberration tests
Experiment: CCRIS mutagenicity studies
Conditions: Test System: AMES SALMONELLA TYPHIMURIUM
[1] = Strain/Indicator: TA100, Metabolic Activation: RAT, LIVER, S-9, AROCLOR 1254, Method: STANDARD PLATE
[2] = Strain/Indicator: TA98, Metabolic Activation: NONE, Method: PREINCUBATION
[3] = Strain/Indicator: TA100, Metabolic Activation: HAMSTER, LIVER, S-9, AROCLOR 1254 (10%), Method: PREINCUBATION
[4] = Strain/Indicator: TA100, Metabolic Activation: NONE, Method: PREINCUBATION
[5] = Strain/Indicator: TA100, Metabolic Activation: RAT, LIVER, S-9, AROCLOR 1254 (10%), Method: PREINCUBATION
[6] = Strain/Indicator: TA1535, Metabolic Activation: HAMSTER, LIVER, S-9, AROCLOR 1254 (10%), Method: PREINCUBATION
[7] = Strain/Indicator: TA1535, Metabolic Activation: NONE, Method: PREINCUBATION
[8] = Strain/Indicator: TA1535, Metabolic Activation: RAT, LIVER, S-9, AROCLOR 1254 (10%), Method: PREINCUBATION

SMILES | mutagenic call [1] | mutagenic call [2] | mutagenic call [3] | mutagenic call [4] | mutagenic call [5] | mutagenic call [6] | mutagenic call [7] | mutagenic call [8] | further results
CC1c2cc(F)ccc2-c2ccc(F)cc21 | active; positive | – | – | – | – | – | – | – | –
OCc1ccc2nc3c(ccc4ccccc43)c(CO)c2c1 | active; positive | – | – | – | – | – | – | – | –
CCOP(=S)(OCC)SCSC(C)(C)C | – | inactive; negative | inactive; negative | inactive; negative | inactive; negative | inactive; negative | inactive; negative | inactive; negative | mutagenic call (Strain/Indicator: TA98, Metabolic Activation: HAMSTER, LIVER, S-9, AROCLOR 1254 (10%), Method: PREINCUBATION): inactive; negative; mutagenic call (Strain/Indicator: TA98, Metabolic Activation: RAT, LIVER, S-9, AROCLOR 1254 (10%), Method: PREINCUBATION): inactive; negative; mutagenic call (Strain/Indicator: TA1537, Metabolic Activation: HAMSTER, LIVER, S-9, AROCLOR 1254 (10%), Method: PREINCUBATION): inactive; negative; mutagenic call (Strain/Indicator: TA1537, Metabolic Activation: NONE, Method: PREINCUBATION): inactive; negative; mutagenic call (Strain/Indicator: TA1537, Metabolic Activation: RAT, LIVER, S-9, AROCLOR 1254 (10%), Method: PREINCUBATION): inactive; negative
O=c1c(=O)c2c([N+](=O)[O-])ccc3ccc4cccc1c4c32 | – | active; positive | – | active; positive | – | – | – | – | mutagenic call (Strain/Indicator: TA98, Metabolic Activation: RAT, LIVER, S-9, AROCLOR 1254, Method: PREINCUBATION): active; positive; mutagenic call (Strain/Indicator: TA100, Metabolic Activation: RAT, LIVER, S-9, AROCLOR 1254, Method: PREINCUBATION): active; positive
CC(C)(COCC1CO1)COCC1CO1 (centres undefined) | – | – | active; positive | active; positive | active; positive | active; positive | active; positive | active; positive | –
